# Measurements taken from publication PMC5447021, “TNF Lectin-Like Domain Restores Epithelial Sodium Channel Function in Frameshift Mutants Associated with Pseudohypoaldosteronism Type 1B” (Frontiers in Immunology, 2017).
# Entries after “also recorded” stand apart in the source; their conditions may differ. Marks after values point to notes of the source that are not given here.
# Legend:
# αL576XβD546XγD556X = assay: Amiloride-sensitive current, αL576XβD546XγD556X; assay type: cell-based, human; settings: lacking all carboxyl termini, preliminary experiments
# αR438fs = assay: Membrane abundance of αR438fs; assay type: cell-based, human; settings: 200 nM, relative to WT control (=1)
# Experimental: (§1) Cell surface biotinylation was performed as previously described ([26]). In brief, A549 cells or transiently transfected HEK-293 cells were grown in 10 cm dishes in 37°C, 5% CO2 incubator in DMEM medium supplemented with 5% FBS. […] Medium was aspirated, and then cells were washed twice with 10 ml ice-cold phosphate-buffered saline (PBS), covered with 2.5 mg EZ-Link Sulfo-NHS-SS-Biotin (Thermo Scientific, Rockford, USA), dissolved in 10 ml ice-cold PBS, and incubated at 4°C with gentle agitation for 30 min. Fifty milliliters of quenching solution were added to cells; then cells were scraped in solution and transferred to fresh 50 ml tube. Cell suspension was centrifuged at 500 × g for 3 min. Supernatant was discarded, and 5 ml of Tris-buffered saline (TBS) was added to the cell pellet. The cell pellet was resuspended and centrifuged at 500 × g for 3 min. Supernatant was discarded and cell pellet was resuspended in lysis buffer containing protease inhibitor cocktail (10 µM pepstatin A, 10 µM phenylmethylsulfonyl fluoride, and 10 µM leupeptin) and transferred to fresh 1.5 ml centrifuge tube. Cell pellet was then homogenized on ice by ultrasonication using 1 s bursts and incubated on ice for at least 30 min. Intact cells and nuclei were pelleted by centrifugation at 10,000 × g for 2 min under cooling conditions. […] Exposed films were scanned and quantified using ImageJ (NIH, MD, USA). […]
# αR448fs = assay: Membrane abundance of αR448fs; assay type: cell-based, human; settings: n = 4
# Experimental: as §1, with “conditions. Pellet was then discarded and supernatant was transferred to fresh tube, incubated overnight with 0.5 ml NeutrAvidin Agarose under gentle rotation at 4°C and centrifuged at 500 × g for 5 min under cooling conditions. Supernatant was then discarded and the pellet washed twice with 200 µl lysis buffer. The biotinylated proteins were eluted with 100 µl sodium dodecyl sulfate (SDS) sample buffer (62.5 mM Tris, pH 6.8, 1% SDS, 10% glycerine, 50 mM dithiothreitol) containing 10 µM E64 at 65°C for 10 min. Sample was then centrifuged at 500 × g for 2 min. Pellet was discarded and supernatant subjected to protein electrophoresis and immunoblotting. The biotinylated proteins were separated under reducing conditions by SDS-PAGE using 7.5% SDS gel along with prestained protein marker (cat. #12949 from Cell Signaling). Proteins were then transferred onto a nitrocellulose membrane (UltraCruzTM […], Santa Cruz Biotechnology, TX, USA) by semi-dry blotting at 25 V for 30 min. Unspecific binding sites were blocked by incubating the membrane overnight at 4°C with 3% FBS in PBS supplemented with 0.02% sodium azide. Membrane was then incubated for 90 min with primary antibody (anti-α-hENaC, anti-δ-hENaC, and anti-β-actin from Sigma Aldrich; anti-β- and anti-γ-hENaC from Santa Cruz Biotechnology).” for “conditions.”
# αL576Xβγ-ENaC = settings: cited from earlier work
# [1] = tested on: pathological conditions involving ENaC; settings: cited from earlier work
# β-ENaC = settings: HEK-293, 5 and 10 min; cited from earlier work
# [2] = tested on: A549 and H441 cells or HEK-293 cells heterologously expressing human ENaC; set-up: method as in PMID 24077967, PMID 25029038; settings: cited from earlier work
smiles,measurement,setting,value
"C[C@@H]1NC(=O)CNC(=O)[C@H](CCC(=O)O)NC(=O)[C@@H]2CCCN2C(=O)[C@H]([C@@H](C)O)NC(=O)[C@H](CCC(=O)O)NC(=O)[C@H](CCCNC(=N)N)NC(=O)[C@H](CCC(N)=O)NC(=O)CNC(=O)[C@@H](N)CSSC[C@@H](C(=O)O)NC(=O)[C@H](Cc2ccc(O)cc2)NC(=O)[C@H](Cc2c[nH]c3ccccc23)NC(=O)[C@@H]2CCCN2C(=O)[C@H](CCCCN)NC(=O)[C@H](C)NC(=O)[C@H](CCC(=O)O)NC1=O [solnatide, L-cysteine, L-cysteinylglycyl-L-glutaminyl-L-arginyl-L-α-glutamyl-L-threonyl-L-prolyl-L-α-glutamylglycyl-L-alanyl-L-α-glutamyl-L-alanyl-L-lysyl-L-prolyl-L-tryptophyl-L-tyrosyl-, cyclic (1→17)-disulfide]",Effect of solnatide on current (words),αL576XβD546XγD556X,"an even slighter, non-significant increase of current"
same,"Membrane abundance, solnatide 5 min","αR438fs; 5 min, own control 0.90 ± 0.07, p < 0.001 vs control",1.39 ± 0.14
same,"Membrane abundance, solnatide 10 min","αR438fs; 10 min, own control 0.90 ± 0.07",0.87 ± 0.10
same,Membrane abundance,"αR448fs; glycosylated αR448fs, 200 nM solnatide, 5 min",highly increased after 5 min of solnatide treatment
same,Increase in membrane abundance after PNGase F,"αR448fs; αR448fs, 200 nM solnatide, 100 units PNGase F",completely abolished in deglycosylated mutants; also recorded: after PNGase F treatment no differences can be observed
same,"Membrane abundance, solnatide 5 min","αR448fs; αR448fs, 200 nM, 5 min, relative to WT control (=1), own control 1.32 ± 0.10, p < 0.001 vs control",5.88 ± 0.32***
same,"Membrane abundance, solnatide 10 min","αR448fs; αR448fs, 200 nM, 10 min, relative to WT control (=1), own control 1.32 ± 0.10",1.30 ± 0.12
same,Effect of solnatide on amiloride-sensitive current,αL576Xβγ-ENaC,a residual albeit non-significant increase in the amiloride-sensitive current
same,"Current increase, glycosylation sites removed",αL576Xβγ-ENaC; glycosylation sites in extracellular loop removed by mutation,small increase was not seen
same,Efficacy in phase II clinical trials,[1],already proven in pathological conditions involving ENaC in phase II clinical trials
same,"Membrane abundance, solnatide",β-ENaC,only slight
same,Na^+ current-enhancing effect after PNGase F,[2],Elimination of the Na^+ current-enhancing effect
